This experiment concerns MM.1S cells. The experiment in a line: Proliferation inhibition (IC50) in MM.1S cells, cell viability assay. Particulars: Homo sapiens, MM1.S, 72 h, read-out: IC50 (nM), proliferation inhibitory activity of MM.1S cells (half inhibitory concentration).
With `CC[N+](CC)(CC)CCCCCCCCSc1cccc2c1CN(C1CCC(=O)NC1=O)C2=O` (centres unmarked) [SIAIS1220093, 8-((2-(2,6-dioxopiperidin-3-yl)-1-oxoisoindolin-4-yl)thio)-N,N,N-triethyloctan-1-aminium chloride], the IC50 is 8.2 nM.

Take `O=C1CCC(N2Cc3c(SCCCCCCCN4CCCCC4)cccc3C2=O)C(=O)N1` (centres unmarked) [SIAIS1220105, 3-(1-oxo-4-((7-(piperidin-1-yl)heptyl)thio)isoindolin-2-yl)piperidine-2,6-dione]: the IC50 was 0.06 nM.

For `CC(C)N(CCCCCCCSc1cccc2c1CN(C1CCC(=O)NC1=O)C2=O)C(C)C` (centres unmarked) [SIAIS1220107, 3-(4-((7-(diisopropylamino)heptyl)thio)-1-oxoisoindolin-2-yl)piperidine-2,6-dione], the IC50 was 0.03 nM.

`O=C1CCC(N2Cc3c(SCCCCCCC(=O)N4CCCCC4)cccc3C2=O)C(=O)N1` (centres unmarked) [SIAIS1220115, 3-(1-oxo-4-((7-oxo-7-(piperidin-1-yl)heptyl)thio)isoindolin-2-yl)piperidine-2,6-dione]: the IC50 stood at 0.05 nM.

Turning to `CC(C)N(C(=O)CCCCCCSc1cccc2c1CN(C1CCC(=O)NC1=O)C2=O)C(C)C` (centres unmarked) [SIAIS1220117, 7-((2-(2,6-dioxopiperidin-3-yl)-1-oxoisoindolin-4-yl)thio)-N,N-diisopropylheptanamide], the IC50 came to 0.07 nM.

As for `O=C1CCC(N2Cc3c(SCCCCCCCCCSCCCC(F)(F)C(F)(F)F)cccc3C2=O)C(=O)N1` (centres unmarked) [SIAIS1220131, 3-(1-oxo-4-((9-((4,4,5,5,5-pentafluoropentyl)thio)nonyl)thio)isoindolin-2-yl)piperidine-2,6-dione], the IC50 is 9.71 nM.

On to `O=C1CCC(N2Cc3c(SCCCC(F)(F)C(F)(F)F)cccc3C2=O)C(=O)N1` (centres unmarked) [SIAIS1220133, 3-(1-oxo-4-((4,4,5,5,5-pentafluoropentyl)thio)isoindolin-2-yl)piperidine-2,6-dione], for which the IC50 came out at 4.73 nM.

On to `O=C1CCC(N2Cc3c(SCCCCCCCCS)cccc3C2=O)C(=O)N1` (centres unmarked) [SIAIS1220143, 3-(4-((8-mercaptooctyl)thio)-1-oxoisoindolin-2-yl)piperidine-2,6-dione], for which the IC50 is 2.73 nM.

Regarding `O=C1CCC(N2Cc3c(SCCCCCCCCC[S+]([O-])CCCC(F)(F)C(F)(F)F)cccc3C2=O)C(=O)N1` (centres unmarked) [SIAIS1220145, 3-(1-oxo-4-((9-((4,4,5,5,5-pentafluoropentyl)sulfinyl)nonyl)thio)isoindolin-2-yl)piperidine-2,6-dione], the IC50 worked out at 4.73 nM.

As to `O=C1CCC(N2Cc3c(SCCCCCCCCCS(=O)(=O)CCCC(F)(F)C(F)(F)F)cccc3C2=O)C(=O)N1` (centres unmarked) [SIAIS1220147, 3-(1-oxo-4-((9-((4,4,5,5,5-pentafluoropentyl)sulfonyl)nonyl)thio)isoindolin-2-yl)piperidine-2,6-dione], the IC50 was 1.59 nM.

For the molecule `CC12CC3CC(C)(C1)CC(NCCCCCCCSc1cccc4c1CN(C1CCC(=O)NC1=O)C4=O)(C3)C2` (centres unmarked) [SIAIS1220157, 3-(4-((7-((3,5-dimethyladamantan-1-yl)amino)heptyl)thio)-1-oxoisoindolin-2-yl)piperidine-2,6-dione], the IC50 was 0.02 nM.

Consider `O=C1CCC(N2Cc3c(SCCCCCCCNC4C5CC6CC(C5)CC4C6)cccc3C2=O)C(=O)N1` (centres unmarked) [SIAIS1220159, 3-(4-((7-((adamantan-2-yl)amino)heptyl)thio)-1-oxoisoindolin-2-yl)piperidine-2,6-dione], for which the IC50 stood at 0.01 nM.

Take `O=C1CCC(N2Cc3c(SCCCCCCCN4CCCC4)cccc3C2=O)C(=O)N1` (centres unmarked) [SIAIS1220161, 3-(1-oxo-4-((7-(pyrrolidin-1-yl)heptyl)thio)isoindolin-2-yl)piperidine-2,6-dione]: the IC50 worked out at 0.12 nM.

On to `O=C1CCC(N2Cc3c(SCCCCCCCN4CCCCCC4)cccc3C2=O)C(=O)N1` (centres unmarked) [SIAIS1220163, 3-(4-((7-(azepan-1-yl)heptyl)thio)-1-oxoisoindolin-2-yl)piperidine-2,6-dione], for which the IC50 worked out at 0.03 nM.
